Results from US9511073B2, “Aromatic amides and uses thereof” (TAXIS Pharmaceuticals, Inc., priority 2011, dated 2016).
In brackets after ≈: the same amount, converted by molar mass.

System: Staphylococcus aureus (Isolate ID ATCC 29213)
Assay: Bacterial assay: MIC by broth microdilution or agar dilution (CLSI), S. aureus ATCC 29213
Type: cell-based
Conditions: Staphylococcus aureus, ATCC29213, read-out: S. aureus MIC (μg/mL) Activity Range, S. aureus (ATCC29213)
How it was run: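 Activity is binned (A ≤0.25 μg/mL; B >0.25–1.0; C >1.0–16; D >16 μg/mL) from MICs determined per CLSI by broth microdilution or agar dilution, on S. aureus ATCC 29213 plus an FtsZ-G196A mutant strain.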

Row | SMILES | MIC [µg/mL]
1 | NC(=O)c1c(F)ccc(OC(COC(=O)N2CCNCC2)c2nc(-c3ccc(C(F)(F)F)cc3)c(Br)o2)c1F (stereo not drawn) [Compound 135, 2-(5-bromo-4-(4-(trifluoromethyl)phenyl)oxazol-2-yl)-2-(3-carbamoyl-2,4-difluorophenoxy)ethyl piperazine-1-carboxylate] | 1 to 16 (≈ 1.61 to 25.8 µM)
2 | NC(=O)c1c(F)ccc(O[C@H](CO)c2nc(-c3ccc4c(c3)CCO4)c(Br)o2)c1F [Compound 253B, (R)-3-(1-(5-bromo-4-(2,3-dihydrobenzofuran-5-yl)oxazol-2-yl)-2-hydroxyethoxy)-2,6-difluorobenzamide] | 1 to 16 (≈ 2.08 to 33.2 µM)
3 | Cn1cc(CNC(=O)OCC(Oc2ccc(F)c(C(N)=O)c2F)c2nc(-c3ccc(C(F)(F)F)cc3)c(Br)o2)cn1 (stereo not drawn) [Compound 198, 2-(5-bromo-4-(4-(trifluoromethyl)phenyl)oxazol-2-yl)-2-(3-carbamoyl-2,4-difluorophenoxy)ethyl ((1-methyl-1H-pyrazol-4-yl)methyl)carbamate] | 0.25 to 1 (≈ 0.388 to 1.55 µM)
4 | NC(=O)c1c(F)ccc(OC(COCC(=O)O)c2nc(-c3ccc(C(F)(F)F)cc3)c(Br)o2)c1F (stereo not drawn) [Compound 86, 2-(2-(5-bromo-4-(4-(trifluoromethyl)phenyl)oxazol-2-yl)-2-(3-carbamoyl-2,4-difluorophenoxy)ethoxy)acetic acid] | > 16
5 | CCOC(=O)C(Oc1ccc(F)c(C(N)=O)c1F)c1nc(C2CCOCC2)co1 (stereo not drawn) [Compound 180, ethyl 2-(3-carbamoyl-2,4-difluorophenoxy)-2-(4-(tetrahydro-2H-pyran-4-yl)oxazol-2-yl)acetate] | > 16
6 | C=CCOP(=O)(OCC=C)OCC(Oc1ccc(F)c(C(N)=O)c1F)c1nc(-c2ccc(C(F)(F)F)cc2)c(Br)o1 (stereo not drawn) [Compound 71, diallyl (2-(5-bromo-4-(4-(trifluoromethyl)phenyl)oxazol-2-yl)-2-(3-carbamoyl-2,4-difluorophenoxy)ethyl) phosphate] | 0.25 to 1
7 | NC(=O)c1c(F)ccc(OC(CO)c2nc(-c3ccc(Cl)cc3)c(Br)o2)c1F (stereo not drawn) [Compound 39, 3-(1-(5-bromo-4-(4-chlorophenyl)oxazol-2-yl)-2-hydroxyethoxy)-2,6-difluorobenzamide] | < 0.25
8 | NC(=O)c1c(F)ccc(OC(COP(=O)(O)O)c2nc(-c3ccc(C(F)(F)F)cc3)c(Br)o2)c1F (stereo not drawn) [Compound 81, 2-(5-bromo-4-(4-(trifluoromethyl)phenyl)oxazol-2-yl)-2-(3-carbamoyl-2,4-difluorophenoxy)ethyl dihydrogen phosphate] | 0.25 to 1
9 | NC(=O)c1c(F)ccc(OC(COC(=O)Nc2ccncc2)c2nc(-c3ccc(C(F)(F)F)cc3)c(Br)o2)c1F (stereo not drawn) [Compound 176, 2-(5-bromo-4-(4-(trifluoromethyl)phenyl)oxazol-2-yl)-2-(3-carbamoyl-2,4-difluorophenoxy)ethyl pyridin-4-ylcarbamate] | 0.25 to 1 (≈ 0.399 to 1.59 µM)
10 | Cc1ccc(CNC(=O)OCC(Oc2ccc(F)c(C(N)=O)c2F)c2nc(-c3ccc(C(F)(F)F)cc3)c(Br)o2)cn1 (stereo not drawn) [Compound 214, 2-(5-bromo-4-(4-(trifluoromethyl)phenyl)oxazol-2-yl)-2-(3-carbamoyl-2,4-difluorophenoxy)ethyl ((6-methylpyridin-3-yl)methyl)carbamate] | 0.25 to 1 (≈ 0.381 to 1.53 µM)
11 | Cn1cccc1CNC(=O)OCC(Oc1ccc(F)c(C(N)=O)c1F)c1nc(-c2ccc(C(F)(F)F)cc2)c(Br)o1 (stereo not drawn) [Compound 202, 2-(5-bromo-4-(4-(trifluoromethyl)phenyl)oxazol-2-yl)-2-(3-carbamoyl-2,4-difluorophenoxy)ethyl ((1-methyl-1H-pyrrol-2-yl)methyl)carbamate] | 0.25 to 1 (≈ 0.389 to 1.55 µM)
12 | CC(Oc1ccc(F)c(C(N)=O)c1F)c1nc(-c2ccc(Cl)cc2)ns1 (stereo not drawn) [Compound 33, 3-(1-(3-(4-chlorophenyl)-1,2,4-thiadiazol-5-yl)ethoxy)-2,6-difluorobenzamide] | < 0.25
13 | CN(C)CCNC(=O)OCC(Oc1ccc(F)c(C(N)=O)c1F)c1nc(-c2ccc(C(F)(F)F)cc2)c(Br)o1 (stereo not drawn) [Compound 134, 2-(5-bromo-4-(4-(trifluoromethyl)phenyl)oxazol-2-yl)-2-(3-carbamoyl-2,4-difluorophenoxy)ethyl (2-(dimethylamino)ethyl)carbamate] | 1 to 16 (≈ 1.61 to 25.8 µM)
14 | CC(=O)OCCCC(Oc1ccc(F)c(C(N)=O)c1F)c1nc(-c2ccc(C(F)(F)F)cc2)c(Br)o1 (stereo not drawn) [Compound 89, 4-(5-bromo-4-(4-(trifluoromethyl)phenyl)oxazol-2-yl)-4-(3-carbamoyl-2,4-difluorophenoxy)butyl acetate] | 0.25 to 1
15 | C=CCc1oc(C(C)Oc2ccc(F)c(C(N)=O)c2F)nc1-c1ccc(Cl)cc1 (stereo not drawn) [Compound 7] | 0.25 to 1 (≈ 0.597 to 2.39 µM)
16 | Cn1cncc1CNC(=O)OCC(Oc1ccc(F)c(C(N)=O)c1F)c1nc(-c2ccc(C(F)(F)F)cc2)c(Br)o1 (stereo not drawn) [Compound 195, 2-(5-bromo-4-(4-(trifluoromethyl)phenyl)oxazol-2-yl)-2-(3-carbamoyl-2,4-difluorophenoxy)ethyl ((1-methyl-1H-imidazol-5-yl)methyl)carbamate] | 1 to 16 (≈ 1.55 to 24.8 µM)
17 | NC(=O)c1c(F)ccc(O[C@H](CO)c2nc(-c3ccc(C(F)(F)F)cc3)co2)c1F [Compound 272B, (R)-2,6-difluoro-3-(2-hydroxy-1-(4-(4-(trifluoromethyl)phenyl)oxazol-2-yl)ethoxy)benzamide] | 1 to 16 (≈ 2.33 to 37.4 µM)
18 | NC(=O)c1c(F)ccc(OC(COC(=O)Cn2cccc2)c2nc(-c3ccc(C(F)(F)F)cc3)c(Br)o2)c1F (stereo not drawn) [Compound 68, 2-(5-bromo-4-(4-(trifluoromethyl)phenyl)oxazol-2-yl)-2-(3-carbamoyl-2,4-difluorophenoxy)ethyl 2-(1H-pyrrol-1-yl)acetate] | < 0.25
19 | CCCc1oc(C(COC(C)=O)Oc2ccc(F)c(C(N)=O)c2F)nc1-c1ccc(C(F)(F)F)cc1 (stereo not drawn) [Compound 65, 2-(3-carbamoyl-2,4-difluorophenoxy)-2-(5-propyl-4-(4-(trifluoromethyl)phenyl)oxazol-2-yl)ethyl acetate] | 1 to 16
20 | Cc1noc(C(Oc2ccc(F)c(C(N)=O)c2F)c2nc(-c3ccc(C(F)(F)F)cc3)co2)n1 (stereo not drawn) [Compound 188, 2,6-difluoro-3-((3-methyl-1,2,4-oxadiazol-5-yl)(4-(4-(trifluoromethyl)phenyl)oxazol-2-yl)methoxy)benzamide] | > 16
21 | CCOc1cnc2sc(C(C)Oc3ccc(F)c(C(N)=O)c3F)nc2c1 (stereo not drawn) [Compound 29, 3-(1-(6-ethoxythiazolo[5,4-b]pyridin-2-yl)ethoxy)-2,6-difluorobenzamide] | 1 to 16 (≈ 2.64 to 42.2 µM)
22 | COc1ncccc1CNC(=O)OCC(Oc1ccc(F)c(C(N)=O)c1F)c1nc(-c2ccc(C(F)(F)F)cc2)c(Br)o1 (stereo not drawn) [Compound 196, 2-(5-bromo-4-(4-(trifluoromethyl)phenyl)oxazol-2-yl)-2-(3-carbamoyl-2,4-difluorophenoxy)ethyl ((2-methoxypyridin-3-yl)methyl)carbamate] | < 0.25
23 | Cc1ccc(CNC(=O)OCC(Oc2ccc(F)c(C(N)=O)c2F)c2nc(-c3ccc(C(F)(F)F)cc3)c(Br)o2)n1C (stereo not drawn) [Compound 211, 2-(5-bromo-4-(4-(trifluoromethyl)phenyl)oxazol-2-yl)-2-(3-carbamoyl-2,4-difluorophenoxy)ethyl ((1,5-dimethyl-1H-pyrrol-2-yl)methyl)carbamate] | 0.25 to 1 (≈ 0.38 to 1.52 µM)
24 | COc1cnc(-c2csc(C(CO)Oc3ccc(F)c(C(N)=O)c3F)n2)cn1 (stereo not drawn) [Compound 261, 2,6-difluoro-3-(2-hydroxy-1-(4-(5-methoxypyrazin-2-yl)thiazol-2-yl)ethoxy)benzamide] | 1 to 16 (≈ 2.45 to 39.2 µM)
